The subject of one experiment is Pak1. The experiment in a line: Pak1 protein expression by immunoblot. In kind it is cell-based, human. An excerpt: FIGS. 20A–20L—Pak1 activation confers tamoxifen-resistance. FIG. 20A: Pak1 activation promoted ER-transactivation function.
For orientation: A western blot detects proteins with antibodies after separation by electrophoresis.

Experiment [1] concerns ER transactivation (ERE-luc). The experiment in a line: ERE-luc transactivation assay. Type of experiment: cell-based, human.
Protocol: MCF-7/DA-Pak1 cells were transfected with ERE-luc, treated with or without Dox for 24 h and then with or without E2 (10^−9M) and/or Tam (10^−8M) for 24 h, and ERE-luc activity was measured. […] FIG. 20D: MCF-7/TAM-Sen and MCF-7/TAMR1 cells were transfected with ERE-luc and treated with E2 or Tam for 24 h and ERE-luc activity was measured. […] FIG. 20L: Ishikawa cells were cotransfected with Pak1 siRNA control or Pak1 siRNA wt and treated with or without Tam (10^−8M) for 24 h and ERE-luc activity was measured.
Ishikawa and MCF-7/TAMR1 cells were transfected with control or Pak1 siRNA for 48 h and then with ERE-luc for 24 h and treated with E2 (10^−9M) for 24 h and ERE-luc activity was measured. […] Ishikawa cells were treated with control or and Pak1 and DLC siRNA for 48 h and then transfected with ERE-luc and treated with Tam (10^−8M) for 24 h and ERE-luc activity was measured.
The subject of the next experiment is pS2 gene chromatin. Description: Chromatin immunoprecipitation (ChIP), pS2 promoter. The note with it: DLC1 overexpression in MCF-7/DLC1 cells. In kind it is cell-based, human. An excerpt: FIG. 14A: Characterization of MCF-7 cells expressing T7-DLC1 under a tet-inducible promoter. Time and dose dependent upregulation of Dox-mediated T7-DLC1 expression. FIG. 14B: DLC1 deregulation potentiates stimulation of Bcl-2 by E2 and by Tam. […] FIG. 14C: DLC1 upregulation suppress Tam ability to inhibit E2-mediated ER transactivation. MCF-7/DLC1 cells were transfected with ERE-luc. […] FIG. 14D: DLC1 deregulation potentiated E2-mediated stimulation of ERE-luc activity in Ishikawa and MCF-7/TAMR1 cells. […] FIG. 14E: Recruitment of DLC1 and ERá to the pS2 promoter chromatin. MCF-7/DLC1 cells were treated with or without Dox for 24 and then with E2 (10^−9M) for 1 h. Chromatin lysates were immunoprecipitated with anti-ER-á or anti-T7 (to detect T7-DLC1) antibodies. Upper panels show the PCR analysis of 304 bp pS2 promoter fragment associated with ER or T7-DLC1.
To delineate the significance of the DLC1 in the modulation of ER transactivation, the effect of T7-DLC1 deregulation on the recruitment of ER to the ER-target pS2 gene promoter chromatin using a chromatin immunoprecipitation (ChIP) assay with anti-ERα or anti-T7 antibodies was examined. […] When the above ChIP studies were repeated using T7 antibody to isolate T7-DLC1, it was observed that both basal and ligand-activated DLC1 were also recruited to pS2 gene chromatin (FIG. 14E). […]

A further experiment concerns ZR75 cells. The experiment in a line: Tumorigenicity of stably expressing ZR75 cells in nude mice. In kind it is in vivo. As to conditions: 5×10^6 cells, no exogenous estradiol. The method, then: FIGS. 6A–6E—DLC1/PIN overexpression potentiates anchorage-independent growth and promotes tumorigenesis. FIG. 6A: Effect DLC1/PIN expression on anchorage-independent growth of ZR75 cells. The anchorage-independent growth potential of DLC1/PIN-expressing clones was measured by the ability of the cells to form colonies on soft agar. […] Error bars represent standard error of mean. FIG. 6B: Western blot analysis of the expression of DLC1/PIN and Pak1 in lysates from cells derived from MCF10AT model system. […] FIG. 6C: Nude mice were injected with 5×10^6 cells stably expressing pcDNA or wild type DLC1/PIN (clone#2) or mutant DLC1/PIN^del88-89 and tumor growth was measured at weekly intervals. […] Tumor growth was only observed in cells expressing wild type DLC1/PIN but not detected in mutant expressing cells. FIG. 6E: Morphology of tumor and expression of T7-DLC1/PIN in DLC1/PIN-induced tumors as measured by H&E and anti T7 staining respectively.
Cell proliferation, soft-agar, and tumorigenicity assays. […] For xenograft studies, 5×10^6 cells were implanted subcutaneously into mammary fat-pads of 10 nude mice, as previously described (Bagheri et al., 2001), and allowed to grow for 20 weeks; tumor size was then measured. […]

Take `CC/C(=C(\c1ccccc1)c1ccc(OCCN(C)C)cc1)c1ccccc1` [tamoxifen]: the Pak1 protein expression result in the experiment on Pak1 (Ishikawa cells, long-term treatment) was “increase”. In addition, the “levels of Pak1 protein” value with Pak1 (MCF-7 cells) is recorded as “no effect”. Moreover, the “inhibitory effects on ERE-luc activity” value in experiment [1] (Ishikawa cells, both DLC1 and Pak1 knocked down) is listed as “restored the inhibitory effects”. In experiment [1] (MCF-7/DA-Pak1 cells), the “Pak1-mediated ERE-stimulation” value was “not inhibited”. The “ER interaction with the pS2 gene chromatin” value with pS2 gene chromatin is “enhanced ER interaction”.

Turning to “DLC1/PIN^del 88-89: DLC1/PIN mutant in which Ser88 and amino acid 89 were deleted”, in the experiment on ZR75 cells, the tumorigenic potential entry is “did not exhibited any tumorigenic potential”.

For the origin of these results see patent US7067633B2, “Targeting cellular entry, cell survival, and pathogenicity by dynein light chain 1/PIN in human cells” (Board of Regents, The University of Texas System, priority 2003, dated 2006).
